What was measured:
inflamed paw = test: Inflamed paw model (carrageenin) in mice; assay type: in vivo, Sabra female mice
Experimental: IA (50 mg/kg) or vehicle were injected i.p. to Sabra female mice (5 per group) 30 min before induction of the inflammatory stimulus. Hind paws were then injected with 50 μl of saline or λ-carrageenin (4%). Ensuing inflammatory swelling was measured by increase in foot volume in a plethysmometer. […] There were highly significant effects of treatment (F=11.7, df=3.64, P<0.001). *, different from IA +saline, P<0.05; **, ***, different from vehicle+saline at P<0.01, P<0.001 respectively; #, different from vehicle+carrageenin, P<0.05.
Inflamed Paw Model. Sabra female mice were used to assess the response to IA or vehicle in an in vivo model of inflammation. Drug or vehicle was administered 30 min before induction of the inflammatory stimulus. Mice (5 per group) were injected i.p. with vehicle (isopropanol:Emulphor:saline=1:1:18) or with vehicle containing IA (50 mg/kg, i.p). Emulphor (a polyethoxylated vegetable oil) is a commercial emulsifier. Hind paws were injected with 50 μl of saline (left or right alternatively) or λ-carrageenin (4%, right or left alternatively), using 26G needles. Ensuing inflammatory swelling was measured by increase in foot volume in a plethysmometer (Ugo-Basile, Italy). Paw volume as well as redness (as a measure of erythema) and licking (as a measure of pain) were assayed before carrageenin application and every 60 min until 4 hrs.

anxiety-like behavior = test: Elevated plus maze; assay type: in vivo, female Sabra mice; conditions: 50 mg/kg i.p.
ROS generation = test: ROS production by zymosan-activated RAW 264.7 macrophages (chemiluminescence); assay type: cell-based, mice
Experimental: (A(1)) Representative Western Blot bands of Cox2 are shown with tubulin as reference. (A(2)) COX-2 levels were measured in RAW 264.7 cells incubated for 24 hrs. with LPS in the presence or in the absence of IA (60 μM/ml); **, p<0.001. (B) Murine peritoneal macrophages were activated by LPS (1 μg/ml for 24 hrs.) in absence of IA or in the presence of IA at indicated concentrations. NO generation was determined by measuring the nitrite accumulated in the supernatants; **, p<0.001. (C) Generation of ROS by RAW 264.7 macrophages (5×10^5 cells in 0.5 ml Hanks' balanced salt solution) was measured by chemiluminescence. Cells were pre-incubated with various doses of IA for 24 hrs before luminol (10 μl) and zymosan (30 μl) were added to the tubes; *, p<0.05; **, p<0.01; ***, p<0.001
ROS (Reactive Oxygen Species) Production by RAW 264.7 Macrophages. Raw 264.7 cells were scrapped, washed and resuspended in Hanks' balanced salt solution (without phenol red). For measurement of chemiluminescence, 0.5 ml of cell suspension (5×10^5 cells) was added to each luminometer tube, together with various doses of IA tested (dissolved in ethanol and further diluted with Hanks). […] 10 μl of luminol (Sigma, St. Louis, USA) and 30 μl of zymosan (Sigma, St. Louis, USA) were added to the tubes, and the chemiluminescence was measured immediately in a luminometer (Biolumate LB 95, Berhold, Wilbad, Germany).

TRPV3 = molecular target: T1, TRPV3 (Mus musculus, UniProt Q8K424); test: Porsolt forced swimming test in WT and TRPV3−/− mice; assay type: in vivo, C57BL/6 mice; parameters: from tissue; host or cells: whole animal, wild type C57BL/6 female mice (TRPV3 KO as control); conditions: 75 mg/kg
T1 sequence (Q8K424 1-791): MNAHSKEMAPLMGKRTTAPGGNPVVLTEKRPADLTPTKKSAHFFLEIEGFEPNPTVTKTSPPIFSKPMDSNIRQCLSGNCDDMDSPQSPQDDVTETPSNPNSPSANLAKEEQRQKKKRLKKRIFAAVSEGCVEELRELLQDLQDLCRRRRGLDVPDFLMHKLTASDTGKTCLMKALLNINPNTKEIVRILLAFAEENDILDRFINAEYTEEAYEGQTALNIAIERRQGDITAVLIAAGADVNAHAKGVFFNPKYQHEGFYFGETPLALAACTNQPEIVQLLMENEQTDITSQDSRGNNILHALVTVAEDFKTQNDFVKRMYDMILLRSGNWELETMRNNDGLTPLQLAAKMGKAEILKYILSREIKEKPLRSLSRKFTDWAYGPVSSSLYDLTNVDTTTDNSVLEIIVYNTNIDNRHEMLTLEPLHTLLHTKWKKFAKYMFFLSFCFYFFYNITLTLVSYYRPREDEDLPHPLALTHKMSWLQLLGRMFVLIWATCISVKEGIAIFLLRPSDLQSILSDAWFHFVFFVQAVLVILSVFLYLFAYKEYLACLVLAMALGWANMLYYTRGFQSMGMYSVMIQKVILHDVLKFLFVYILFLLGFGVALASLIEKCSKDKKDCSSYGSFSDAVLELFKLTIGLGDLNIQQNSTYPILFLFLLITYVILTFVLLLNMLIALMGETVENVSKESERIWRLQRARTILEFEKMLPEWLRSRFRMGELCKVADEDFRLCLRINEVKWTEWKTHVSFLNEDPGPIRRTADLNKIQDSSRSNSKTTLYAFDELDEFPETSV
Experimental: Wild type and TRPV3^−/− mice (18-20 weeks old) were injected with vehicle (isopropanol:emulphor:saline=1:1:18) or IA (75 mg/kg). 30 min later they were tested in a, the elevated plus maze (5 min), followed by b, 9 min exposure to the Porsolt forced-swimming test. […] Data are presented as means±SEM; n=4-5. * p<0.05, compared to WT-Vehicle-injected mice (Bonferroni post hoc test). ** p<0.01, compared to WT-Vehicle-injected mice (Bonferroni post hoc test).
Animals and procedures. Female Sabra mice (Harlan, Israel, 15-20 weeks old) and wild type C57BL/6 or TRPV3 KO female mice (18-20 weeks old) [Chung, M. K., Lee, H., Mizuno, A., Suzuki, M. & Caterina, M. J. TRPV3 and TRPV4 mediate warmth-evoked currents in primary mouse keratinocytes. J. Biol. Chem. 279, 21569-21575 (2004)] were used for behavioral assessments. 10 mice were housed in each cage. The animal care and protocols met the guidelines of the U.S. National Institutes of Health, detailed in the Guide for the Care and Use of Laboratory Animals, and were applied in conformity with the Institutional Ethics Committees. For the c-Fos immunostaining, female Sabra mice (see above) were used. Temperature in the animal room was maintained between 20-22° C., the light cycle was 12 h lights on (8:00-20:00 h); 12 h lights off (20:00-8:00 h). […]

Q: `CC(=O)OC1CC/C(C)=C/CC/C(C)=C/CC2(C(C)C)CCC1(C)O2` (stereo not drawn) [IA, incensole acetate] was tested. Which “inflammation (inflamed paw volume)” value (inflamed paw; 50 mg/kg i.p. 30 min before carrageenin, 4 hrs period) did it give?
A: Its value is “significantly reduced inflammation”.

Q: What about the “other inflammatory parameters, such as redness and pain” value (inflamed paw; 50 mg/kg i.p., data not shown) of the same compound?
A: The value was “significantly reduced”.

Q: What about the “time in open arms of the elevated plus maze” value (anxiety-like behavior) of the same compound?
A: Its value is “potent anxiolytic-like effect”.

Q: And the inhibition at 60 µM (ROS generation; Mus musculus, RAW264.7, at 60 μM, p=0.0021)?
A: The inhibition at 60 µM was about 45%.

Q: What about the “ROS generation, dose dependence” value (ROS generation; three concentrations, 24 hrs pre-incubation, ANOVA P<0.0001) of the same compound?
A: Its value is “significant dose-dependent inhibitory effect”.

Q: What about the “immobility time, WT mice” value (TRPV3) of the same compound?
A: The value was “significantly reduced the immobility time”.

— US20100099756A1, “USES OF INCENSOLE, INCENSOLE ACETATE AND DERIVATIVES THEREOF” (YISSUM RESEARCH DEVELOPMENT COMPANY OF THE HEBREW …, priority 2006, published 2010)
